Source: ChEMBL document CHEMBL1154559, “New bisindole alkaloids of the topsentin and hamacanthin classes from the Mediterranean marine sponge Rhaphisia lacazei” (J Nat Prod, 2000)
Values after ≈ are worked out from the molar mass of the structure shown.

Experiment: Cytotoxicity against human NSCLC-N6 cells by colorimetric assay
Type: functional, cell-based

Row | Structure (SMILES) | IC50 [µg/mL]
1 | O=C(c1nc(-c2c[nH]c3ccccc23)c[nH]1)c1c[nH]c2cc(O)ccc12 [TOPSENTIN] | 12 (≈ 35.1 µM)
2 | O=C(c1nc(-c2c[nH]c3cc(Br)ccc23)c[nH]1)c1c[nH]c2cc(O)ccc12 [BROMOTOPSENTIN] | 6.3 (≈ 15 µM)
